{"source": "patent US4390629A", "about": "“Polypeptide degrading enzymes” (President and Fellows of Harvard College, priority 1981, dated 1983)", "key": {"Protease Ci": {"tested_on": "Protease Ci", "experiment": "Inhibition and stimulation of protease Ci insulin-degrading activity", "format": "biochemical, E. coli"}, "Protease Re": {"target": "T1, Protease Re (Escherichia coli, UniProt P23865)", "T1 sequence (P23865 23-682)": "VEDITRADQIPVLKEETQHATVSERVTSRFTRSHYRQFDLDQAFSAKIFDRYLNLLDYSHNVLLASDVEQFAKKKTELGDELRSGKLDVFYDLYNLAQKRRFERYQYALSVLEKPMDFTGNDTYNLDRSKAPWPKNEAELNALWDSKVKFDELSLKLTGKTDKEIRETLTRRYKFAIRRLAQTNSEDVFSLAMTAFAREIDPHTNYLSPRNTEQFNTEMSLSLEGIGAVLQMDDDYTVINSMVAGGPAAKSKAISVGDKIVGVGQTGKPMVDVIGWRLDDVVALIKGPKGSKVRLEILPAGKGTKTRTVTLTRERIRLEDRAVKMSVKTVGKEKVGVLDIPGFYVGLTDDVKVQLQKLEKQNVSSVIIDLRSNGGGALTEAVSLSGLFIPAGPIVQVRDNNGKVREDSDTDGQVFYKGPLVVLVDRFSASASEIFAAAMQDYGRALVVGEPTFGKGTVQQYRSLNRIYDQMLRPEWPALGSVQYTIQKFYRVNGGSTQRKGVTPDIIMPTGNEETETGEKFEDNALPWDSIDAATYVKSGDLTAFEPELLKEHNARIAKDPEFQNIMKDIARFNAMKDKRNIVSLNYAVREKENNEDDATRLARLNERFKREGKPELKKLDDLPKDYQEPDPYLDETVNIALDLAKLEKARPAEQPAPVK", "experiment": "Sensitivity of protease Re proteolytic activity (casein) to inhibitors", "format": "biochemical, E. coli"}, "Fa": {"tested_on": "Fa", "format": "biochemical, E. coli"}, "Mi": {"tested_on": "Mi", "format": "biochemical, E. coli"}, "La [1]": {"target": "T2, La (Escherichia coli, UniProt P0A9M0)"}, "Protease So": {"tested_on": "Protease So", "format": "biochemical, E. coli"}, "La [2]": {"target": "T2, La", "experiment": "biochemical", "conditions": "read-out: stimulation of globin-degrading activity in peak IV"}, "[^3 H] casein": {"tested_on": "[^3 H] casein", "experiment": "Degradation of [3H] casein to acid-soluble products", "format": "biochemical, bovine"}, "[^14 C] globin": {"tested_on": "[^14 C] globin", "experiment": "Degradation of [14C] globin to acid-soluble products", "format": "biochemical, beef"}}, "note": "Like-named read-outs stand apart in the source and are kept apart here."}
{"molecule": "[Mn+2]", "note": "[Mn^++]", "values": [{"measurement": "stimulation of protease Ci activity by divalent cations", "setting": "Protease Ci", "result": "markedly stimulated"}]}
{"molecule": "bacitracin", "values": [{"measurement": "inhibition of protease Ci activity by antibiotics", "setting": "Protease Ci", "result": "strongly inhibit"}]}
{"molecule": "[Zn+2]", "note": "[Zn^++]", "values": [{"measurement": "stimulation of protease Ci activity by divalent cations", "setting": "Protease Ci", "result": "not"}]}
{"molecule": "O=C(O)CN(CCN(CC(=O)O)CC(=O)O)CC(=O)O", "note": "[EDTA]", "values": [{"measurement": "sensitivity of protease Re to inhibitor", "setting": "Protease Re", "result": "sensitive"}, {"measurement": "inhibition of Fa", "setting": "Fa", "result": 60, "unit": "%"}, {"measurement": "inhibition of Mi", "setting": "Mi", "result": "about 35%"}]}
{"molecule": "CCCCCCC1OC(=O)CNC(=O)C(C(C)O)NC(=O)C(CO)NC(=O)C(C(C)CC)NC(=O)C(CC(C)C)N(C)C(=O)C1C", "note": "(centres unmarked) [globomycin]", "values": [{"measurement": "inhibition of protease Ci activity by antibiotics", "setting": "Protease Ci; concentrations of 5-20 μg per ml", "result": "strongly inhibit"}]}
{"molecule": "Nc1ccn([C@@H]2O[C@H](COP(=O)(O)OP(=O)(O)OP(=O)(O)O)[C@@H](O)[C@H]2O)c(=O)n1", "note": "[CTP]", "values": [{"measurement": "stimulation of La proteolysis by nucleotides (in words)", "setting": "La [1]", "result": "stimulate but less effectively"}]}
{"molecule": "CCN1C(=O)C=CC1=O", "note": "[N-ethyl maleimide]", "values": [{"measurement": "sensitivity of La to inhibitor", "setting": "La [1]", "result": "inhibited"}]}
{"molecule": "[Co+2]", "note": "[Co^++]", "values": [{"measurement": "stimulation of protease Ci activity by divalent cations", "setting": "Protease Ci", "result": "markedly stimulated"}]}
{"molecule": "N=C(N)c1ccc(OCCCCCOc2ccc(C(=N)N)cc2)cc1", "note": "[pentamidine]", "values": [{"measurement": "inhibition of protease So", "setting": "Protease So", "result": "about 80%"}]}
{"molecule": "O=c1ccn([C@@H]2O[C@H](COP(=O)(O)OP(=O)(O)OP(=O)(O)O)[C@@H](O)[C@H]2O)c(=O)[nH]1", "note": "[UTP]", "values": [{"measurement": "stimulation of La proteolysis by nucleotides (in words)", "setting": "La [1]", "result": "stimulate but less effectively"}]}
{"molecule": "O=C(O)c1cc[c]([Hg+])cc1.[OH-]", "note": "[p-hydroxymercuribenzoate]", "values": [{"measurement": "inhibition of protease Ci activity", "setting": "Protease Ci", "result": "sensitive"}]}
{"molecule": "O=S(=O)(F)Cc1ccccc1", "note": "[phenylmethyl sulfonyl fluoride]", "values": [{"measurement": "sensitivity of protease Re to inhibitor", "setting": "Protease Re", "result": "sensitive"}, {"measurement": "sensitivity of La to inhibitor", "setting": "La [1]", "result": "sensitive"}, {"measurement": "sensitivity of protease So to inhibitor", "setting": "Protease So", "result": "sensitive"}]}
{"molecule": "Nc1ncnc2c1ncn2[C@@H]1O[C@H](COP(=O)(O)OP(=O)(O)OP(=O)(O)O)[C@@H](O)[C@H]1O", "note": "[ATP]", "values": [{"measurement": "fold induction at 3000 µM", "setting": "La [2]", "result": "4 to 20"}, {"measurement": "increase of degradation of globin and casein by La", "setting": "La [1]; 3000 µM", "result": "2.5-20 fold"}]}
{"molecule": "O=C(O)CN(CCOCCOCCN(CC(=O)O)CC(=O)O)CC(=O)O", "note": "[EGTA]", "values": [{"measurement": "inhibition of protease Ci activity", "setting": "Protease Ci", "result": "not"}]}
{"molecule": "[O]=[V]([O-])([O-])[O-]", "note": "[Vanadate]", "values": [{"measurement": "sensitivity of La to inhibitor", "setting": "La [1]", "result": "sensitive to inhibition"}]}
{"molecule": "c1cnc2c(c1)ccc1cccnc12", "note": "[o-phenanthroline]", "values": [{"measurement": "sensitivity of protease Re to inhibitor", "setting": "Protease Re; casein as substrate", "result": "sensitive"}, {"measurement": "inhibition of protease Ci activity", "setting": "Protease Ci", "result": "inhibited"}, {"measurement": "inhibition of Fa", "setting": "Fa", "result": "about 35%"}, {"measurement": "inhibition of Mi", "setting": "Mi", "result": "about 35%"}]}
{"molecule": "Nc1ncnc2c1ncn2[C@H]1C[C@H](O)[C@@H](COP(=O)(O)OP(=O)(O)OP(=O)(O)O)O1", "note": "[deoxyadenosine triphosphate]", "values": [{"measurement": "stimulation of La proteolysis by nucleotides (in words)", "setting": "La [1]", "result": "stimulate but less effectively"}]}
{"molecule": "La: ATP-dependent cytoplasmic E. coli serine protease of peak IV, about 115,000 daltons (protein, UniProt P0A9M0 2-784, looked up) Lon protease: NPERSERIEIPVLPLRDVVVYPHMVIPLFVGREKSIRCLEAAMDHDKKIMLVAQKEASTDEPGVNDLFTVGTVASILQMLKLPDGTVKVLVEGLQRARISALSDNGEHFSAKAEYLESPTIDEREQEVLVRTAISQFEGYIKLNKKIPPEVLTSLNSIDDPARLADTIAAHMPLKLADKQSVLEMSDVNERLEYLMAMMESEIDLLQVEKRIRNRVKKQMEKSQREYYLNEQMKAIQKELGEMDDAPDENEALKRKIDAAKMPKEAKEKAEAELQKLKMMSPMSAEATVVRGYIDWMVQVPWNARSKVKKDLRQAQEILDTDHYGLERVKDRILEYLAVQSRVNKIKGPILCLVGPPGVGKTSLGQSIAKATGRKYVRMALGGVRDEAEIRGHRRTYIGSMPGKLIQKMAKVGVKNPLFLLDEIDKMSSDMRGDPASALLEVLDPEQNVAFSDHYLEVDYDLSDVMFVATSNSMNIPAPLLDRMEVIRLSGYTEDEKLNIAKRHLLPKQIERNALKKGELTVDDSAIIGIIRYYTREAGVRGLEREISKLCRKAVKQLLLDKSLKHIEINGDNLHDYLGVQRFDYGRADNENRVGQVTGLAWTEVGGDLLTIETACVPGKGKLTYTGSLGEVMQESIQAALTVVRARAEKLGINPDFYEKRDIHVHVPEGATPKDGPSAGIAMCTALVSCLTGNPVRADVAMTGEITLRGQVLPIGGLKEKLLAAHRGGIKTVLIPFENKRDLEEIPDNVIADLDIHPVKRIEEVLTLALQNEPSGMQVVTAK", "values": [{"measurement": "degradation of casein", "setting": "[^3 H] casein", "result": "capable of degrading"}, {"measurement": "degradation of globin", "setting": "[^14 C] globin", "result": "capable of degrading"}]}
{"molecule": "Do: E. coli serine protease of about 520,000 daltons, degrades globin and casein (protein, UniProt P0C0V0 27-474, looked up) Periplasmic serine …: AETSSATTAQQMPSLAPMLEKVMPSVVSINVEGSTTVNTPRMPRNFQQFFGDDSPFCQEGSPFQSSPFCQGGQGGNGGGQQQKFMALGSGVIIDADKGYVVTNNHVVDNATVIKVQLSDGRKFDAKMVGKDPRSDIALIQIQNPKNLTAIKMADSDALRVGDYTVAIGNPFGLGETVTSGIVSALGRSGLNAENYENFIQTDAAINRGNSGGALVNLNGELIGINTAILAPDGGNIGIGFAIPSNMVKNLTSQMVEYGQVKRGELGIMGTELNSELAKAMKVDAQRGAFVSQVLPNSSAAKAGIKAGDVITSLNGKPISSFAALRAQVGTMPVGSKLTLGLLRDGKQVNVNLELQQSSQNQVDSSSIFNGIEGAEMSNKGKDQGVVVNNVKTGTPAAQIGLKKGDVIIGANQQAVKNIAELRKVLDSKPSVLALNIQRGDSTIYLLMQ", "values": [{"measurement": "degradation of casein", "setting": "[^3 H] casein", "result": "hydrolyze"}, {"measurement": "degradation of globin", "setting": "[^14 C] globin", "result": "hydrolyze"}]}
